We go through 65 compounds from a melting point compilation (Tetko et al.; mined from patent text by program, amines drawn as free bases though some values may be those of a salt).

One may read the melting point as the temperature of the solid-liquid transition.

For `CC(C)(C)c1ccc(C(N)=O)c(NC(=O)Nc2cccnc2)c1`, the melting point was 188 to 189 °C.
For the compound `O=C1c2ccccc2C(=O)N1CC(=O)N1Cc2ccccc2Oc2ccc(Cl)cc21`, the melting point was in the range of 184 to 185 °C.
In the case of `O=c1[nH]cnc2c(CN[C@H](CO)[C@H](O)CO)c[nH]c12` it was 230 °C; in that of `COCc1nnc2ccc(-c3ccccc3)nn12`, 133 °C.
As to `Cc1csc(-c2cc3cccc(NS(=O)(=O)c4cccs4)c3[nH]2)n1`, the melting point was in the range of 181 to 183 °C.
In the case of `Nc1nc(NCCO)nc(N2CCOCC2)n1` it was 159 to 161 °C.
The compound `O=C1C2CC3CC2C(C(=O)O)(C3)N1Cc1ccccc1` (stereo not given) came in with a melting point of 191 to 194 °C.
On to `CCCCCCCCCCCCCCCCCC(=O)OCCN1C(C)(C)CCCC1(C)C`, for which the melting point came to 30 °C.
With `CC1CC(C)OP(=O)(Cc2ccc(N)cc2)O1` (stereo not given), the melting point was in the range of 160 to 161 °C.
In turn, `CC(C)(C)OC(=O)N[C@H](Cc1cn(Cc2ccccc2)c2ccccc12)C(=O)O` yielded a melting point of 164 to 165 °C.
In the case of `O=C(O)Cc1ccc(OCc2ccccc2)c(OCc2ccccc2)c1` it was 112 to 113 °C.
For `CC(=O)OCSc1ccc2c3c(cccc13)C(=O)N2`, the melting point fell in the range of 149 to 154 °C.
In the case of `O=S(=O)(c1ccccc1)N1CCCC1c1ccc(Cl)cc1` (racemic) it was 122 °C; in that of `Cc1csc(NC(=O)C2(CN3CCN(c4nc(C)cs4)C3=O)C=CC=CC2)n1` (stereo not given), 197 to 198 °C.
With `COc1ccc2ncc3c(c2c1)C(O)CCC3` (stereo not given), the melting point stood at 190 °C.
Under `CCOC(=O)COc1ccc(Cn2c(-c3ccc(Cl)cc3)c(C)c3cc(OCc4ccccc4)ccc32)cc1` stands 99 to 101 °C.
In the case of `COc1ccccc1Oc1c(NS(=O)(=O)c2ccc(C(C)(C)C)cc2)nc(-c2ncccn2)nc1OCCOc1ccc(C(C)O)cc1` (stereo not given) it was 191 to 194 °C.
In the case of `Clc1ccc(-c2cccc3[nH]c4c(c23)CCN(Cc2ccccc2)CC4)c(Cl)c1` it was 194 to 196 °C.
As for `Nc1ccc(OCCn2ccnc2)cc1`, the melting point was 91 to 92 °C.
`COC(=O)c1cc2cc(OC(F)(F)F)ccc2[nH]1`: the melting point amounted to 129 °C.
`CCCCc1nc2c(N)nc3cc(OCc4ccccc4)ccc3c2n1CCOc1ccccc1` had a melting point of 188 to 189 °C.
On to `CC(C)n1cc(-c2nc(C#N)c(N)nc2-c2ccc(F)c(F)c2)ccc1=O`, for which the melting point worked out at 180 °C.
Turning to `CCc1cccc(C)c1CNc1cc(Br)cc2c1nc(C)n2C`, the melting point is 145 to 147 °C.
Under `CCCCCCCCCCCCCCOc1cc(OCCCOc2ccc(O)cc2)cc(C(=O)O)c1` stands 91 to 93 °C; under `CCCCCCCCCCc1csc2c1sc1c2sc2c3scc(CCCCCCCCCC)c3sc21`, 108 °C; under `CN(C)CCCNC(=O)c1cccc(-c2nnc(CSCCOc3ccccc3)o2)c1`, 88 to 90 °C.
In the case of `N#Cc1cc(N)ccc1Oc1ccccc1` it was 89 °C; in that of `COc1cc(C2=CCN(S(=O)(=O)CC(=O)NO)CC2)ccc1-c1ccccc1`, 175 to 177 °C.
Regarding `CC1(COc2ccc([N+](=O)[O-])cc2)CC(=O)c2cc(C(=O)O)ccc2O1` (stereo not given), the melting point lay in the range of 227 to 235 °C.
`CN1CCc2cc(Cl)c(NC=O)cc2[C@@H](c2ccccc2)C1` yielded a melting point of 135 to 136 °C.
`O=Cc1cnc2c(OCc3ccccc3)cccn12` gave a melting point of 167 °C.
The compound `CCCCOc1cc2c(nc(O)n2Cc2ccccc2)c(N)n1` came in with a melting point of 205 to 208 °C.
Compound `COc1cc2c(cc1O)CCN(Cc1cc(OC)c(OC)c(OC)c1)C2` showed a melting point of 170 to 171 °C.
For the compound `CC(=O)NC[C@H]1CN(c2ccc(N3CCC(n4cc(CO)nn4)CC3)c(F)c2)C(=O)O1`, the melting point lay within 160 to 162 °C.
In the case of `C=CCON=Cc1nc(-c2ccc(Cl)c(Cl)c2Cl)cn1S(=O)(=O)N(C)C` it was 87 to 88 °C; in that of `O=Cc1ccc2nccc(Oc3ccccc3)c2c1`, 112 to 115 °C; in that of `O=[N+]([O-])C(F)(CCc1nnc(C(F)(F)C(F)(F)C(F)(F)F)o1)[N+](=O)[O-]`, 21 to 22 °C.
Under `O=C(CO[C@H]1CC[C@@H](CCNS(=O)(=O)c2ccc(Cl)cc2)CC1)Nc1nnn[nH]1` stands 191 to 192 °C; under `CCC(C)(C)c1ccc(S(=O)(=O)N2C(=O)C(NCCN3CCOCC3)(c3ccccc3Cl)c3cc(Cl)ccc32)cc1` (stereo not given), 147 °C; under `Cc1nc2cc(NC(=O)c3ccc(Cl)cc3Cl)ccc2n1C`, 275 to 277 °C.
Under `O=C(c1ccccc1)n1c(=O)c(C(F)(F)F)cn(C2CC(O)C(CO)O2)c1=O` (stereo not given) stands 144 to 146 °C; under `CC(=O)OCCCC(=O)CC(=O)c1ccccc1`, 48 to 49 °C.
Consider `COc1ccc(C(=O)NNC(=O)C(F)(F)F)cc1`, for which the melting point was in the range of 147 to 148 °C.
Consider `CCCc1cc(Cl)c2occ(C)c2c1O`, for which the melting point is 49 to 50 °C.
The compound `CC1C(N(C)C)CCN2c3ccccc3Cc3ccccc3C12` (stereo not given) yielded a melting point of 174 to 176 °C.
`CC(CNc1nc2ccccc2o1)C(=O)NCCCN(C)Cc1ccc(Cl)c(Cl)c1` (stereo not given) registered a melting point of 134 to 135 °C.
Consider `CC(C)(C)OC(=O)NN(C(=O)c1ccccc1)C(C)(C)C`, for which the melting point lay in the range of 167 to 170 °C.
For `Cc1cccc2c(=O)[nH]c(N3CCN(CCCCN4CCN(C)CC4)CC3)cc12`, the melting point lay within 202 to 203 °C.
On to `CN1C(=O)CC[C@]2(C)c3ccc(-c4ccc(Cl)c(C(F)(F)F)c4)cc3CC[C@@H]12`, for which the melting point lay within 134 to 137 °C.
In the case of `CCNC(=O)N1CCc2cc(S(=O)(=O)n3cc(-c4ccccc4)[nH]c3=O)ccc21` it was 234 to 235 °C.
In the case of `CC/C(=C\CCC(O)(CC)CC)c1csc(COc2ccc(CO)c(CO)c2)c1` it was 73 to 74 °C.
Under `NS(=O)(=O)c1ccc(C2CCCC2)cc1` stands 158 °C; under `COc1ccc(N(C(=O)CN2C(=O)C(COCc3ccccc3)C(=O)N(c3ccccc3)c3ccccc32)C(C)C)cc1` (stereo not given), 203 to 204 °C.
In turn, `Cn1c(C(F)(F)F)cc(=O)n(-c2ncc(Cl)cc2F)c1=O` gave a melting point of 133 to 134 °C.
In the case of `COc1ccc(-c2csc(Nc3cnccn3)n2)cc1OC`, the melting point lay within 205 to 207 °C.
In the case of `Cc1ccc([N+](=O)[O-])c(C)c1C(=O)c1c[nH]cn1` it was 245 to 249 °C.
In the case of `O=CNc1cc(Cl)ccc1C=O` it was 131 to 136 °C; in that of `CCC(=O)C1=CC=C(OC)C(Cl)(Cl)C1`, 51 to 54 °C.
Compound `C=CCc1cc(C=C2SC(=S)NC2=O)cc(CC=C)c1O` yielded a melting point of 157 to 160 °C.
Under `CCOC(=O)c1sc(SC)c2c1CCc1sc(-c3ccccc3)nc1-2` stands 153 to 154 °C.
Turning to `ON=CCc1cccs1`, the melting point was determined as 92 °C.
Turning to `Nc1nc(C(=Cc2c(Cl)ccc(Cl)c2Cl)C(=O)O)cs1`, the melting point is > 210 °C.
In the case of `CCOC(=O)[C@H](CCC1CCCCC1)N[C@H]1COc2ccccc2N(CC(=O)O)C1=O` it was 135 to 139 °C; in that of `COc1cccc(-c2ncc3n2CC(=O)N(C)C3)c1`, 115 to 117 °C; in that of `CS(=O)(=O)N(Cc1cccnc1)c1ccc(OCC(F)(F)F)cc1`, 69 to 70 °C.
